“Also recorded” adds a separate entry of the source.
What was measured:
[1] = in vitro; conditions: human, % viability
[2] = system: normal cell line WI-38; conditions: human, 0.4 µM
[3] = system: HOP-92 cells; assay: Annexin V-FITC/PI apoptosis assay; type: cell-based, human
Protocol: Using the Annexin V-FITC/PI test, the tendency of compound 4e to cause apoptosis and its potential association with cytotoxic action were evaluated. The cells were labeled with annexin V-FITC/PI and cultured for 24 h to detect any signs of apoptosis. […] According to research on early and late apoptosis and DNA content (Figs. 9, 10), 4e with 3.4% necrosis is probably going to result in a large amount of apoptosis (Table 5 and Fig. 10).
Cell apoptosis were analyzed by the Annexin V-FITC Apoptosis Detection Kit (BioVision Research Products, USA). Thereafter, 1-5 x 10^5 cells was collected by centrifugation and resuspend in 500 μl of 1X Binding Buffer. Added 5 μl of Annexin V-FITC and 5 μl of propidium iodide (PI […], optional.). The cells incubated at room temperature for 5 min in the dark;Analyzed by Annexin V-FITC binding flow cytometric method (Ex = 488 nm; Em = 530 nm) usingFITC signal detector (usually FL1) and PI staining by the phycoerythrin emissionsignal detector (usually FL2).For adherent cells, we gently trypsinized and washed cells once with serum-containing mediabefore incubation with Annexin V-FITC (A.3-5).

[4] = system: HOP-92 cells; assay: Cell cycle analysis (propidium iodide flow cytometry); type: cell-based, human
Text: Research has been done on how the most powerful antitumor compound, 4e, affects the HOP-92 cell cycle’s growth and apoptosis.
Researcher : Dr.Mohamed Hawas email: mohhawwas80@gmail.com mob. 01151345909 Assay : Cell Cycle Analysis mohamedhassan.pharm.ast@azhr.edu.eg Samples : 02 samplescell line : ---Ref. : ---Date : 00-00-2022Reader : BD FACSCaliburKit used : ab139418_Propidium Iodide Flow Cytometry Kit/BDSolvent : DMSOAssay samples : Cell culture

SMILES: CN[C@@H]1C[C@H]2O[C@@](C)([C@@H]1OC)n1c3ccccc3c3c4c(c5c6ccccc6n2c5c31)C(=O)NC4 [Staurosporine, reference compound]
- viability at 0.4 µM [1]: 84.6%
- viability at 6.3 µM [1]: 56.2%
- viability at 25 µM [1]: 46.8%
- viability at 1.6 µM ([1]; WI38, 1.6uM (log conc. 0.19)): 68.1%
- viability at 100 µM ([1]; WI38, 100uM (log conc. 2)): 37.4%
- % viability [2]: 84.55%

SMILES: C/C(=N\Nc1ccc(S(N)(=O)=O)cc1)c1cnn(-c2cc(=O)[nH]c3ccc(Br)cc23)c1C [Compound 4e, (E)-4-(2-(1-(1-(6-bromo-2-oxo-1,2-dihydroquinolin-4-yl)-5-methyl-1H-pyrazol-4-yl)ethylidene)hydrazineyl)benzenesulfonamide]
- Apoptosis Late ([3]; HOP92 cells, control 0.15): 11.28
- Apoptosis Early ([3]; HOP92 cells, control 0.69): 22.91
- Necrosis ([3]; HOP92 cells, control 1.3): 3.4
- Apoptosis Total ([3]; HOP92 cells, control 2.14): 37.59
- Apoptosis Early ([3]; HOP-92, 24 h at IC50): 22.91%
- Apoptosis Late ([3]; HOP-92, 24 h at IC50): 11.28%
- Apoptosis Total ([3]; HOP-92, 24 h at IC50): 37.59%
- Necrosis ([3]; HOP-92, 24 h at IC50): 3.4%
- DNA content Comment ([4]; HOP92 cells): cell growth arrest@ G1
- DNA content %G2/M ([4]; HOP92 cells, control 16.08): 14.6%
- DNA content %S ([4]; HOP92 cells, control 35.66): 31.29%
- DNA content %G0-G1 ([4]; HOP92 cells, control 48.26): 54.11%
- Comment (cell cycle arrest) ([4]; HOP-92, 24 h at IC50): cell growth is arrested at the G1 phase; also recorded: cell cycle arrest at the G0-1 phase; also recorded: Cell growth arrest at G1phase
- DNA content % G0–G1 ([4]; HOP-92, 24 h at IC50): 54.11%
- DNA content %G2/M ([4]; HOP-92, 24 h at IC50): 14.6%
- DNA content %S ([4]; HOP-92, 24 h at IC50): 31.3%
